Laboratory results as given in patent publication US20070087744A1, “METHOD FOR REDUCING THE TIME DELAY IN A TELEPHONE SYSTEM” (priority 2003, published 2007).

What was measured:
Assay in all cases: In Vitro Minimum Inhibitory Concentration
Assay type in all cases: cell-based
Escherichia coli = details: for MIC: Escherichia coli
Description: (§1) Subsequent dilutions had the concentration calculated in ppm. Each concentration was challenged with an equal volume of microbial inoculums. After incubation the lowest concentration showing “No-Growth” was recorded as the Minimum Inhibitory Concentration.

Bacteroides fragilis = system: Bacteroides fragilis
Description: as §1

Micrococcus luteus = details: ATCC7468, ATCC 7468
Description: as §1

Acinetobacter baumannii = system: Acinetobacter baumannii
Description: as §1

Candida tropicalis = details: ATCC750, ATCC 750
Description: as §1

Candida parapsilosis = details: Lodderomyces parapsilosis; clinical isolate 040400Cp2
Description: as §1

Klebsiella pneumoniae = system: Klebsiella pneumoniae
Description: as §1

Klebsiella oxytoca = system: Klebsiella oxytoca
Description: as §1

Haemophilus influenzae = system: Haemophilus influenzae
Description: as §1

Candida albicans = system: Candida albicans
Description: as §1

Enterococcus faecium = system: Enterococcus faecium
Description: as §1

Enterococcus faecalis = system: Enterococcus faecalis
Description: as §1

Enterobacter aerogenes = details: Klebsiella aerogenes
Description: as §1

CCO [70% ethyl alcohol, ethyl alcohol]
17500 µg/mL: MIC (Candida tropicalis) | MIC (Candida parapsilosis) | MIC (Candida albicans; ATCC10231, ATCC 10231) | MIC (Candida albicans; clinical isolate 040400Ca2)
8750 µg/mL: MIC (Escherichia coli; ATCC11229, ATCC 11229) | MIC (Escherichia coli; ATCC25922, ATCC 25922) | MIC (Escherichia coli; clinical isolate 051599Ec) | MIC (Bacteroides fragilis; ATCC25285, ATCC 25285) | MIC (Bacteroides fragilis; clinical isolate 061901Bf2) | MIC (Micrococcus luteus) | MIC (Acinetobacter baumannii; clinical isolate 061901 Ab1) | MIC (Klebsiella pneumoniae; clinical isolate 06190Kpn1) | MIC (Klebsiella oxytoca; ATCC43165, ATCC 43165) | MIC (Klebsiella oxytoca; clinical isolate 061901Ko1) | MIC (Enterococcus faecium; ATCC51559, ATCC 51559) | MIC (Enterococcus faecium; clinical isolate 061901Efm1) | MIC (Enterococcus faecalis; ATCC29212, ATCC 29212) | MIC (Enterococcus faecalis; clinical isolate 040400Esp17) | MIC (Enterobacter aerogenes; ATCC13048, ATCC 13048) | MIC (Enterobacter aerogenes; clinical isolate 040400Ea1)
5830 µg/mL: MIC (Haemophilus influenzae; ATCC19418, ATCC 19418) | MIC (Haemophilus influenzae; clinical isolate 121699Hi)
4380 µg/mL: MIC (Acinetobacter baumannii; ATCC19606, ATCC 19606, trypticase soy broth) | MIC (Klebsiella pneumoniae; ATCC13883, ATCC 13883)
8750 ppm: Minimum Inhibitory Concentration (Escherichia coli; clinical isolate 070399Ec)
